Results taken from publication PMC6539525, “Design, Synthesis, and Mechanism of Dihydroartemisinin–Coumarin Hybrids as Potential Anti-Neuroinflammatory Agents” (Molecules, 2019).
Read-outs that look alike come from different tables or passages of the source.

What was measured:
[1] = tested on: TNF-α release of LPS-induced N9 cells; experiment: TNF-α release of LPS-induced N9 cells (cytokine kit); format: cell-based, murine; settings: compound 1 μM, LPS 1 μg/mL, 48 h; for inhibition at 1 µM: Mus musculus
Protocol: (§1) N9 cells, which were in the logarithmic phase, were incubated for 24 h by adherent culture. Subsequently, the medium was changed to new one without serum. The cells were treated with different concentration of tested compounds. After specific time in the LPS condition, the supernatants were collected and analyzed.
(§2) The secreted level of TNF-α and IL-6 was measured using mouse Th1/Th2/Th17 Cytokine Kit, purchased from BD Pharningen. The data was analyzed by FCAP Array v3.0. IL-2, IL-4, IL-10, IL-17A, and IFN-γ were not detected in the experiment.

[2] = tested on: IL-6 release of LPS-induced N9 cells; experiment: IL-6 release of LPS-induced N9 cells (cytokine kit); format: cell-based, murine; settings: compound 1 μM, LPS 1 μg/mL, 48 h; for inhibition at 1 µM: Mus musculus
Protocol: as §1, §2

A549 cells = experiment: MTT cytotoxicity in A549 cells; format: cell-based; settings: Homo sapiens
Protocol: (§3) As the anti-neuroinflammatory agents for cancer patients, all newly synthesized compounds were evaluated in vitro for antitumor activity against human breast cancer cell line MDA-MB-231, colorectal cancer cells HT-29 and HCT-116, and lung cancer cell line A549 by using the standard MTT method, respectively. Doxorubicin (DOX) and DHA were used as the reference standard. Additionally, owing to the rapid proliferation, the tumor cells actually was always in hypoxia condition. Therefore, the in vitro cytotoxicity was evaluated in two different conditions (hypoxia and normoxia).
(§4) After recovery, the cells were cultured in 96-well plates for 24 h at 37 °C in a humidified atmosphere with 95% air and 5% CO2. After treated with different tested compounds, the hypoxia groups were placed in a sealed hypoxia incubator chamber (Stemcell Technologies, Inc., Vancouver, BC, Canada) filled with 5% CO2 and 95% N2 for 24 h, and then transferred to the incubator chamber filled with air for 72 h. On the contrary, the normoxia groups were cultured under air condition for 96h.
(§5) Cancer cells HT-29 (Human Colorectal Adenocarcinoma cell line), MDA-MB-231 (Human Breast Cancer cell line), HCT-116 (Human Colorectal Carcinoma cell line), and A549 (Human Lung Adenocarcinomic cell line) were from ATCC.
(§6) When the adherent cells reached 80% confluence, the culture medium was discarded. The cells were digested by trypsin and collected after centrifugation. The fresh culture medium was gently blown into it to form single-cell suspension. Cell suspension will be diluted to 1.5–3 × 10^4 cells/mL. Each hole of 96-well plates was added 100 μL cell suspension and incubated for 24 h (5% CO2; 37 °C). Then the holes were added different concentrations of tested compounds. The early screening concentration is set to 100 μM, 50 μM, 25 μM, 12.5 μM, and 6.25 μM. Three replicates were made for each concentration of the tested compounds. After the cells were grown for 96h, 20 μL MTT (5 mg/mL) was added to each well and incubated for 4 h. The medium was discarded and each well was added 100 μL DMSO to dissolve the formazan blue. Absorbance was measured at 570 nm with a microplate reader (Synergy-HT, BioTek Instruments, Winooski, VT, USA).
(§7) Hypoxia condition: The cells were treated with different concentration of tested compounds, placed in hypoxia chamber (Catalog Number 27310, Stemcell Technologies, Inc., Vancouver, BC, Canada), and incubated for 24 h ([…]; 37 °C). Then the cells were placed in normoxia condition (5% CO2; 37 °C) and incubated for 72 h.

[3] = tested on: NO release of LPS-induced microglial N9 cells; experiment: Inhibition of NO release in LPS-induced N9 cells (Griess); format: cell-based, murine; settings: Mus musculus, 1 μg/mL LPS for 48 h, NO level in medium
Protocol: (§8) The anti-neuroinflammatory activity of DCH was evaluated and then the representative compounds were selected for the further study. […] In addition, in order to exclude the death influence, MTT-IC20 of all the compounds were measured. […] The exact reason was still unclear, but we supposed that it might be related to the homeostasis of cells. The tumor cells actually were always in hypoxia condition, in which DCH could promote the cytotoxic activity against tumor cells. In brief, DCH could reduce the release of NO caused by LPS-induced microglial cells.
as §1
The nitrite levels in medium were determined by Griess reaction. The absorbance was measured at 540 nm using a microplate reader.

[4] = MTT cytotoxicity in N9 cells; format: cell-based, murine; settings: mouse, N9 microglial cells, cytotoxic activity
Protocol: as §8, §6, §1

HT-29 cells = experiment: MTT cytotoxicity in HT-29 cells; format: cell-based, Human; settings: Homo sapiens, MTT
Protocol: as §3
as §4, with “On the contrary, the normoxia groups were cultured under air condition for 96h.” left out
as §5
as §6, with “After the cells were grown for 96h, 20 μL MTT (5 mg/mL) was added to each well and incubated for 4 h.” left out, “USA). […]” for “USA).”

MDA-MB-231 cells = experiment: MTT cytotoxicity in MDA-MB-231 cells; format: cell-based; settings: Homo sapiens
Protocol: as §3, §4, §5, §6, §7

HCT-116 cells = experiment: MTT cytotoxicity in HCT-116 cells; format: cell-based; settings: Homo sapiens
Protocol: as §3, §4, §5, §6, §7

[5] = NO capture analysis with sodium nitroprusside (Griess); settings: 0.01-10 μM compound, 0.5 mM SNP solution, 1 h, room temperature
Protocol: Sodium nitroprusside (SNP) is a NO donor. In this experiment, the reason of the DCH reducing NO level was preliminary explored. […] That means the main reason of the NO level reduction is due to species-specific effect.
SNP was dissolved in PBS to prepare the 100 mM stock solution. In this experiment, SNP solution of […] was added to 975 μL PBS solution which included different concentration of tested compounds. After 60 min under r.t. condition, the concentration of NO2^− was tested using Griess assay.
6l (0.01 μM, 0.1 μM, 1 μM, and 10 μM) or 5n (0.01 μM, 0.1 μM, 1 μM, and 10 μM) was added to a concentration of 0.5 mM SNP solution. […] Data were shown as mean ± SD. *** p < 0.001 compared with control group.

[6] = A549, hypoxia 24 h then normoxia 72 h, read-out: IC50 A549 Hypoxia
[7] = A549, normoxia 96 h, read-out: IC50 A549 Normoxia
[8] = HT-29, hypoxia 24 h then normoxia 72 h, read-out: IC50 HT-29 Hypoxia
[9] = HT-29, normoxia 96 h, read-out: IC50 HT-29 Normoxia
[10] = MDA-MB-231, hypoxia 24 h then normoxia 72 h, read-out: IC50 MDA-MB-231 Hypoxia
[11] = MDA-MB-231, normoxia 96 h, read-out: IC50 MDA-MB-231 Normoxia
[12] = HCT-116, hypoxia 24 h then normoxia 72 h, read-out: IC50 HCT-116 Hypoxia
[13] = HCT-116, normoxia 96 h, read-out: IC50 HCT-116 Normoxia

IC50 [3] [µM]	melting point [°C]	Structure (SMILES)	inhibition at 1 µM [1] [%]	TNF-α [1] [pg/mL]	inhibition at 1 µM [2] [%]	IL-6 [2] [pg/mL]	IC50 (A549 cells; [6]) [µM]	IC50 (A549 cells; [7]) [µM]	IC20 [4] [µM]	IC50 (HT-29 cells; [8]) [µM]	IC50 (HT-29 cells; [9]) [µM]	IC50 (MDA-MB-231 cells; [10]) [µM]	IC50 (MDA-MB-231 cells; [11]) [µM]	IC50 (HCT-116 cells; [12]) [µM]	IC50 (HCT-116 cells; [13]) [µM]	NO radical scavenging activity [5]
1.13	115 to 117	Cc1ccc2c(OCc3cn(CCCO[C@H]4O[C@@H]5O[C@@]6(C)CC[C@H]7[C@H](C)CC[C@@H]([C@H]4C)[C@@]57OO6)nn3)cc(=O)oc2c1C [6n]					0.039	30.4	6.53	4.19	9.16	10.8	13.3	33.7	22.5	
0.57	84 to 86	Cc1cccc2c(OCc3cn(CCO[C@H]4O[C@@H]5O[C@@]6(C)CC[C@H]7[C@H](C)CC[C@@H]([C@H]4C)[C@@]57OO6)nn3)cc(=O)oc12 [5o]					45.1	50.4	> 10	21.2	16.1	16.5	37.4	38.5	29.7	
1.42	80 to 82	Cc1ccc2oc(=O)cc(OCc3cn(CCCO[C@H]4O[C@@H]5O[C@@]6(C)CC[C@H]7[C@H](C)CC[C@@H]([C@H]4C)[C@@]57OO6)nn3)c2c1 [6p]	23.4	3451.29 ± 646.50	35.2	747.80 ± 125.56	18.8	18.9	> 10	12.5	7.49	10.3	22.1	38.1	35.3	
1.08	111 to 113	Cc1cc(C)c2oc(=O)cc(OCc3cn(CCO[C@H]4O[C@@H]5O[C@@]6(C)CC[C@H]7[C@H](C)CC[C@@H]([C@H]4C)[C@@]57OO6)nn3)c2c1 [5m]					1.28	2.67	1.04	5.89	12.9	13	14.2	44.8	62.8	
0.52	86 to 88	Cc1cc(C)c2c(OCc3cn(CCCO[C@H]4O[C@@H]5O[C@@]6(C)CC[C@H]7[C@H](C)CC[C@@H]([C@H]4C)[C@@]57OO6)nn3)cc(=O)oc2c1 [6l]					9.78	6.88	> 10	3.4	8.41	6.85	1.17	27.9	26.9	had NO radical scavenging activity

The remaining lines, values behind:

Structure (SMILES)	IC50 [3] [µM]	melting point [°C]	inhibition at 1 µM [1] [%]	TNF-α [1] [pg/mL]	inhibition at 1 µM [2] [%]	IL-6 [2] [pg/mL]	IC50 (A549 cells; [6]) [µM]	IC50 (A549 cells; [7]) [µM]	IC20 [4] [µM]	IC50 (HT-29 cells; [8]) [µM]	IC50 (HT-29 cells; [9]) [µM]	IC50 (MDA-MB-231 cells; [10]) [µM]	IC50 (MDA-MB-231 cells; [11]) [µM]	IC50 (HCT-116 cells; [12]) [µM]	IC50 (HCT-116 cells; [13]) [µM]	NO radical scavenging activity [5]
C[C@H]1[C@@H](OCCc2cn(Cc3cc4cc(Br)ccc4oc3=O)nn2)O[C@@H]2O[C@@]3(C)CC[C@H]4[C@H](C)CC[C@@H]1[C@@]24OO3 [2b, 6-bromo-3-((4-(2-((10S)-dihydroartemisininoxy)ethyl)-1H-1,2,3-triazol-1-yl)-methyl)-2H-1-chromen-2-one]	0.64	138 to 140	27.2	3285.99 ± 1062.40	30.9	797.52 ± 140.74	60.2	> 100	> 10	12.1	9.75	36.9	37.7	> 100	56	
C[C@H]1[C@@H](OCc2cn(Cc3cc4cc(Br)cc(Br)c4oc3=O)nn2)O[C@@H]2O[C@@]3(C)CC[C@H]4[C@H](C)CC[C@@H]1[C@@]24OO3 [1e, 6,8-dibromo-3-((4-((10S)-dihydroartemisininoxy)methyl-1H-1,2,3-triazol-1-yl)-methyl)-2H-1-chromen-2-one]	0.48	103 to 105					59.8	> 100	> 10	26.9	15.3	45.5	77.9	> 100	54.5	
Cc1cc(C)c2c(OCc3cn(CCO[C@H]4O[C@@H]5O[C@@]6(C)CC[C@H]7[C@H](C)CC[C@@H]([C@H]4C)[C@@]57OO6)nn3)cc(=O)oc2c1 [5l]	3.36	111 to 113					> 100	> 100	7.13	3.76	2.78	> 100	> 100	> 100	> 100	
C[C@H]1[C@@H](OCCc2cn(Cc3cc4cc(Cl)ccc4oc3=O)nn2)O[C@@H]2O[C@@]3(C)CC[C@H]4[C@H](C)CC[C@@H]1[C@@]24OO3 [2c, 6-chloro-3-((4-(2-((10S)-dihydroartemisininoxy)ethyl)-1H-1,2,3-triazol-1-yl)-methyl)-2H-1-chromen-2-one]	2.66	138 to 140	32.1	3077.03 ± 375.48	26.4	850.24 ± 112.47	66.9	87.2	> 10	19.6	17.5	32.5	44	64.4	49.5	
